Assay [1] concerns the target T1, recombinant human Flag-tagged PARP7 (amino acids 456-657) (Homo sapiens, UniProt Q7Z3E1).
T1 construct: recombinant human Flag-tagged PARP7 (amino acids 456-657)
T1 sequence (Q7Z3E1 456-657): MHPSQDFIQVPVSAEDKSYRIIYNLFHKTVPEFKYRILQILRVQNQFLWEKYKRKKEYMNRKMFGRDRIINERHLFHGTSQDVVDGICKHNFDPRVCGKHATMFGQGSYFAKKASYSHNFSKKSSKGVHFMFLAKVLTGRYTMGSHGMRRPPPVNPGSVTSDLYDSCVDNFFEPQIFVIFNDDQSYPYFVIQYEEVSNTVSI
In words: PARP7 biochemical DELFIA assay (auto-MARylation). The conditions noted are these: DELFIA readout, IC50 class. A digest of the protocol: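 Readout is DELFIA time-resolved Eu fluorescence (Ex337 nm, Em620 nm) of biotin-ADP-ribose on immobilised Flag-tagged PARP7 456-657. Enzyme (12.5-37.5 nM as added) sat 30 min with compound before biotin-NAD+ (15 μM solution, pH 7.5 HEPES buffer) started 2-3 h room-temperature self-modification, stopped with excess NAD+.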

In assay [2] the test system is CT26 colorectal cancer cells. In words: Induction of IFNβ in cancer cell supernatants (mouse IFNβ ELISA), CT26. It counts as cell-based, murine. Conditions: 10 μM compound 177 alone or in combination with chemotherapeutic agents, 24 hours, FIG. 1. As to the method: (§1) Selected compounds were also tested for their ability to induce type I interferon (interferon β, IFNβ) production in cancer cells as a cell-based measure of PARP7 inhibition and its effects on stimulating the STING pathway signalling. […] Such data highlight the therapeutic utility of combining PARP7 inhibitors with chemotherapy or other agents that can induce aberrant cytosolic nucleic acids in order to further enhance an anti-tumour immune response.
(§2) CT26 and MC38 cells were seeded in 96-well microplates each at a density of 30,000 cells per well. Following overnight incubation, cells were treated with either DMSO, 10 μM compound 177, or various chemotherapeutic agents (final DMSO concentration of 0.2% v/v). Cells were also treated with 10 μM compound 177 in combination with various chemotherapeutic agents. After 24 hours, IFNβ was measured from cell supernatants using a sandwich enzyme linked immunosorbent assay (ELISA) assay kit (PBL Assay Sciences, catalogue number 42410-2) according to manufacturer's instructions.
For orientation: In an ELISA, binding on a coated surface is turned into a signal by an enzyme label.

Assay [3] deals with MC38 colorectal cancer cells. In words: Induction of IFNβ in cancer cell supernatants (mouse IFNβ ELISA), MC38. It counts as cell-based, murine. The conditions noted are these: 10 μM compound 177 alone or in combination with chemotherapeutic agents, 24 hours, FIG. 1. The method, then:
as §1, §2

The subject of assay [4] is cancer cell lines with high baseline expression of interferon stimulated genes. The conditions noted are these: cited from earlier work.
The subject of assay [5] is type I interferon responses. Conditions: both in vitro and in vivo; cited from earlier work.
The subject of the next assay is tumour. Conditions: animal models; cited from earlier work.

In general, IC50 refers to the concentration that inhibits the measured activity by half.

On to `CC(COCCC(=O)N1CCN(c2ncc(C(F)(F)F)cn2)CC1)n1nc(C(F)(F)F)c2c(=O)[nH]ncc21` (single isomer, unassigned) [Compound 177, 1-(1-(3-oxo-3-(4-(5-(trifluoromethyl)pyrimidin-2-yl)piperazin-1-yl)propoxy)propan-2-yl)-3-(trifluoromethyl)-1,5-dihydro-4H-pyrazolo[3,4-d]pyridazin-4-one], for which, in assay [1], the IC50 was no more than 100 nM. The “induction of IFNβ in cell supernatants” value in assay [2] and in assay [3] was “induction of IFNβ” in each case.

For `O=C(OCC1CC1Cn1nc(C(F)(F)F)c2c(=O)[nH]ncc21)N1CCN(c2ncc(C(F)(F)F)cn2)CC1` (centres unmarked) [Compound 493], the IC50 in assay [1] was no more than 100 nM.

`N#Cc1cnc(N2CCN(C(=O)CCOCCn3nc(C(F)(F)F)c4c(=O)[nH]ncc43)CC2)s1` [Compound 502]: the IC50 in assay [1] is no more than 100 nM.

In the case of `C[C@@H](COCCC(=O)N1CCN(c2ncc(C(F)(F)F)cn2)CC1)Nc1cn[nH]c(=O)c1C(F)(F)F` [RBN-2397], the inhibition of proliferation result in assay [4] was “potently inhibited proliferation”. For the same molecule, in assay [5], the “type I interferon responses” value is “restored type I interferon responses”. The “tumour regression and specific anti-tumour immunity” value in the assay on tumour is on record as “tumour regression”.

(Values after patent publication US20240217968A1, “PHARMACEUTICAL COMPOUND” (DUKE STREET BIO LIMITED, priority 2021, published 2024).)
